# Reference: PubChem BioAssay AID1053172 (The Scripps Research Institute Molecular Screening Center, 2014)
# Activity calls are given as the source filed them. How the calls were made is not given here.
# Target: HIV-1 integrase / human LEDGF/p75 complex
# Assay: inhibitors of HIV-1 IN-LEDGF/p75 DNA integration, dose response, biochemical, TR-FRET (AID 1053172)
row,Structure (SMILES),IC50
1,O=C(O)CC(CCc1ccccc1)OC1OC(CO)C(O)C(O)C1O (stereo not given),0.62 µM
2,O=[N+]([O-])c1cc(Br)c(O)c(C=Nc2ccc(N3CCOCC3)cc2)c1,inactive
3,N#Cc1c(SCC(=O)Nc2nccs2)sc2c(O)cc(=O)[nH]c12,8.63 µM
4,O=C(N/N=C/c1ccc(F)cc1)c1cc(-c2ccco2)nc2ccccc12,8.59 µM
5,c1coc(-c2ccc3nncn3c2)c1,1.18 µM
6,C=C(C)C(=O)Nc1cccc(C2=NOC3(C2)C[C@@H](C(N)=O)N(C(=O)/C=C/C=C/C)C3)c1 (stereo not given in full),3.25 µM
7,O=C1/C(=C/C=C/c2ccco2)SC(=S)N1c1ccc(O)cc1,2.66 µM
8,COC(=O)C1CCN(C(=O)c2cc(-c3ccco3)nc3ccccc23)CC1,5.92 µM
9,C[C@@H]1O[C@@H](Oc2c(-c3cc(O)c(O)c(O)c3)oc3cc(O)cc(O)c3c2=O)[C@H](O)[C@H](O)[C@H]1O,1.64 µM
10,CCCCCn1c(NC(=O)c2ccco2)c(S(=O)(=O)c2ccc(C)cc2)c2nc3ccccc3nc21,inactive
11,O=C(O)c1ccc(-n2cccc2/C=C2/SC(=O)N(CC(=O)N3CCCC3)C2=O)cc1,2.46 µM
12,CCN(CC)c1ccc(N=C2C=CC(=O)C=C2NC(C)=O)cc1,> 36.6 µM (inactive)
13,S=c1[nH]nc(-c2ccco2)n1/N=C/C=C/c1ccco1,inactive
14,C[C@@H]1O[C@@H](O[C@@H]2[C@@H](O)[C@H](OCCc3ccc(O)c(O)c3)O[C@H](CO)[C@H]2OC(=O)/C=C/c2ccc(O)c(O)c2)[C@H](O)[C@H](O)[C@H]1O,1.41 µM
15,CCOc1ccc(NC(=O)CN(C)C(=O)c2cc3c(s2)CCC3)cc1OCC,9.57 µM
16,CC1CCCC(C)N1/N=C/c1ccc(O)c(O)c1 (stereo not given),3.37 µM
17,Cn1cccc1CC(=O)NN=C/C=C\c1ccco1,> 36.5 µM (inactive)
18,COP(=O)(OC)c1ccc(NCc2cc(O)ccc2O)cc1,inactive
19,Nc1c(C(=O)N/N=C/c2cccnc2)oc2nc(-c3ccco3)cc(-c3ccco3)c12,> 36.6 µM (inactive)
20,COc1cc(C)cc(C(=O)O)c1C1=C(O)c2cccc(O)c2C(=O)C1=O,4.87 µM
21,c1coc(-c2nnc(-c3ccco3)nn2)c1,1.75 µM
22,CCOc1ccc(Nc2ccc(N)c(S(=O)(=O)O)c2)cc1,inactive
23,CC1OC(Oc2c(-c3cc(O)c(O)c(O)c3)oc3cc(O)cc(O)c3c2=O)C(O)C(O)C1O (stereo not given),3.09 µM
24,CCN=c1scc(C)n1/N=C/c1ccc(O)c(O)c1O,5.61 µM
25,COc1ccc(NS(=O)(=O)c2ccc3c(c2)[C@H]2C=CC[C@H]2[C@@H](c2ccc(C(=O)O)cc2)N3)cc1,2.12 µM
26,NC(=S)NN=Cc1nccc2c(N)cccc12,> 36.5 µM (inactive)
27,Oc1ccc(NCc2cccc(OCc3ccccc3)c2)cc1,> 36.5 µM (inactive)

row,Structure (SMILES),IC50
1,Oc1ccc(C[C@H]2NCCc3cc(O)c(O)cc32)cc1O,3.23 µM
2,O=S(=O)(O)c1cc(Cl)cc(N=Nc2ccc(O)cc2O)c1O,9.94 µM
3,Oc1ccc(/C=N/N=C(c2ccccc2)c2ccccc2)c(O)c1O,1.08 µM
4,O=C(Cc1nnc(NC(=O)c2ccccc2)s1)N/N=C\c1ccc(O)c(O)c1,2.21 µM
5,CC1=CC(C)(C)N2C(=O)C(=Nc3ccc(O)cc3)c3cccc1c32,> 12.2 µM (inactive)
6,O=C(Cc1cnn(-c2ccccc2)c1)c1ccc(O)c(O)c1O,> 36.5 µM (inactive)
7,C=C(C)C(=O)Nc1cccc(C2=NOC3(C2)C[C@@H](C(N)=O)N(C(=O)C2(C)CC2)C3)c1 (stereo not given in full),2.39 µM
8,COc1ccc(N=C2NC(=O)/C(=C\C=C\c3ccco3)S2)cc1,8.07 µM
9,Oc1cccc(/C=N/NC(=S)Nc2cccnc2)c1O,inactive
10,C=C(C)C(=O)Oc1ccc(N=Nc2ccc(C)cc2)ccc1=O,3.48 µM
11,Cc1ccc(-c2csc(NS(=O)(=O)c3cccc(F)c3)n2)o1,inactive
12,C=C(C)C(=O)Nc1cccc(C2=NOC3(C2)C[C@@H](C(N)=O)N(C(=O)/C(C)=C/C)C3)c1 (stereo not given in full),3.25 µM
13,N#C/C(=C\c1ccc(O)c(O)c1)C(=O)Nc1cccc2ncccc12,1.07 µM
14,Oc1cccc(CN2CCOCC2)c1O,inactive
15,CC(=O)Nc1ccc(C(=O)/C=C/c2ccco2)cc1,9.78 µM
16,O=C1c2ccccc2C(=O)N1/N=C/c1ccc(O)c(O)c1,3 µM
17,Cc1ccc(/C=C2/C(=O)c3ccc(C(=O)O)cc3C2=O)o1,2.28 µM
18,Brc1ccc(-c2nn3c(-c4ccco4)nnc3s2)o1,inactive
19,CC1OC(OCC2OC(Oc3c(-c4ccc(O)cc4)oc4cc(O)cc(O)c4c3=O)C(O)C(O)C2O)C(O)C(O)C1O (stereo not given),8.68 µM
20,O=C(O)c1ccc(-n2c(-c3cc(-c4ccco4)[nH]n3)n[nH]c2=S)cc1,7.32 µM
21,Cc1c(O)cc2c(c1O)C(=O)CC(c1ccc(O)cc1)O2 (stereo not given),9.39 µM
22,COC(=O)c1cc(O)cc(OC)c1Oc1cc(C)cc(O)c1C(=O)O,2.59 µM
23,Cc1ccc(/C=C/C(=O)Nc2ccc([N+](=O)[O-])c(NC(=O)/C=C/c3ccc(C)o3)c2)o1,inactive
24,O=S(=O)(c1cc(O)ccc1O)c1cccc2c(S(=O)(=O)c3cc(O)ccc3O)cccc12,inactive
25,Oc1ccc(-c2cn3c(n2)SCC3)cc1O,1.48 µM
26,C(=C\c1ccco1)/c1ccc2ccccc2n1,> 36.5 µM (inactive)
27,O=C(O)c1cccc(-n2cccc2/C=C2/NC(=O)N(c3ccc(Cl)cc3)C2=O)c1,0.794 µM

row,Structure (SMILES),IC50
1,NC1=CC(=O)C(=O)c2cccnc21,2.14 µM
2,COCCN(CCOC)Cc1c(O)ccc2c1O/C(=C\c1ccco1)C2=O,> 12.2 µM (inactive)
3,NC1=C(Cl)C(=O)c2ccc(S(N)(=O)=O)cc2C1=O,0.429 µM
4,Oc1ccc(C=Nc2cccc3ncccc23)c(O)c1,> 36.5 µM (inactive)
5,O=S(=O)(O)c1ccc(O)c2cc(Nc3ccccc3)ccc12,0.723 µM
6,Oc1ccc(/C=N/NC(=S)Nc2cccnc2)cc1O,4.5 µM
7,C=C(C)C(=O)Nc1cccc(C2=NOC3(C2)C[C@@H](C(N)=O)N(C(=O)C(=C)C)C3)c1 (stereo not given in full),5.92 µM
8,C=C1c2cccc(O)c2C(=O)C2C(=O)[C@]3(O)C(=O)C(C(N)=O)C(=O)[C@@H](N(C)C)[C@@H]3[C@@H](O)[C@H]12 (stereo not given in full),4.76 µM
9,O=Cc1ccc2oc3nc4n(c(=O)c3c(=O)c2c1)CCCS4,1.81 µM
10,O=C(CCCN1C(=O)/C(=C/c2ccco2)SC1=S)Nc1ccccc1C(=O)O,8.37 µM
11,COC1=CC(=O)C(C2CC(=O)c3c(O)cc(O)cc3O2)=CC1=O (stereo not given),> 36.5 µM (inactive)
12,C=CC1=C(C(=O)O)N2C(=O)[C@@H](NC(=O)/C(=N/OCC(=O)O)c3csc(N)n3)[C@H]2SC1,0.287 µM
13,CC1(C)OC(C)(C)/C(=C/Nc2ccc(O)cc2)C1=O,inactive
14,Nc1ccc2c(c1)C/C(=C/c1ccco1)C2=O,> 36.6 µM (inactive)
15,O=c1c(OC2OC(CO)C(O)C(O)C2OC2OC(CO)C(O)C(O)C2O)c(-c2ccc(O)cc2)oc2cc(O)cc(O)c12 (stereo not given),8.05 µM
16,O=c1c(-c2c(O)cc(O)c3c(=O)cc(-c4ccc(O)cc4)oc23)c(-c2ccc(O)cc2)oc2cc(O)cc(O)c12,4.23 µM
17,COc1cc(-c2cc(=O)c3c(O)c(OC)c(OC)c(O)c3o2)ccc1O,4.96 µM
18,O=C1CC(=O)N(Cc2ccco2)C(=O)N1,0.691 µM
19,Cn1c(N)c(C(=O)COC(=O)c2cc(-c3ccco3)nc3ccccc23)c(=O)n(C)c1=O,2.57 µM
20,O=C(O)C1Nc2c(O)cccc2C2C=CCC12 (stereo not given),0.754 µM
21,Cc1ccc(N=C2NC(=O)/C(=C/C=C/c3ccco3)S2)cc1C,7.35 µM
22,O=C1/C(=C\c2ccc(O)c(O)c2)C(c2ccccc2)=NN1c1ccccc1,inactive
23,CN(C(=O)COC(=O)c1cc(-c2ccco2)nc2ccccc12)C1CCS(=O)(=O)C1 (stereo not given),7.42 µM
24,CCn1c(C)nc2cc(C(=O)N/N=C/c3ccc(O)c(O)c3O)ccc21,0.429 µM
25,O=C(N/N=C\C=C\c1ccc([N+](=O)[O-])o1)c1cccs1,> 36.5 µM (inactive)
26,O=c1cc(-c2ccc(O)cc2)oc2cc(O)c(C3OC(CO)C(O)C(O)C3O)c(O)c12 (stereo not given),5.96 µM
27,N/C(=N\N=C/c1ccc(-c2ccc(O)c(C(=O)O)c2)o1)N[N+](=O)[O-],1.55 µM

row,Structure (SMILES),IC50
1,O=S(=O)(O)c1cc(O)c(N=Nc2ccc(O)cc2O)c2ccccc12,inactive
2,Cc1c(CC(=O)N2CCN(C(=O)C3COc4ccccc4O3)CC2)c(=O)oc2c(O)c(O)ccc12 (stereo not given),0.408 µM
3,C=C(C)C(=O)Nc1cccc(C2=NOC3(C2)C[C@H](C(N)=O)N(C(=O)/C=C/C)C3)c1 (stereo not given in full),4.72 µM
4,C=CC1=C(C(=O)O)N2C(=O)[C@@H](NC(=O)/C(=N\OCC(=O)O)c3csc(N)n3)[C@H]2SC1,2.89 µM
5,O=C(O)c1ccc(-n2cccc2/C=C2/NC(=O)N(c3ccccc3)C2=O)cc1,2.85 µM
6,COCCN=c1scc(-c2ccco2)n1/N=C/c1ccc(O)c(O)c1O,3.26 µM
7,COCCCNC(=O)/C(C#N)=C/c1ccc(OCC(=O)O)c(OC)c1,5.28 µM
8,Oc1ccc(C=Nc2ccc(N3CCOCC3)cc2)c(O)c1,inactive
9,O=C(N/N=C/c1ccc(O)cc1O)C(=O)N/N=C/c1ccc(O)cc1O,0.177 µM
10,CN(C)c1ccc2cc(S(=O)(=O)O)cc(O)c2c1,4.49 µM
11,O=C(COC(=O)c1c2c(nc3ccccc13)/C(=C\c1ccco1)CC2)NC1CCCC1,6.44 µM
12,O=C(NCc1ccco1)c1cc2ccc(O)cc2oc1=O,inactive
13,O=C1S/C(=C\C=C\c2ccco2)C(=O)N1c1ccc(O)cc1,9.56 µM
14,O=C1C=C(O)c2[nH]c(=O)ccc2C1=O,3.8 µM
15,Cc1cc(/C=C2\C(=O)NC(=O)N(c3ccccc3F)C2=O)c(C)n1-c1cc(C(=O)O)cc(C(=O)O)c1,0.815 µM
16,NC(=O)CC1Nc2cccc3cccc(c23)NC1=O (stereo not given),> 36.5 µM (inactive)
17,CN(C)C1C(=O)C(C(N)=O)=C(O)C2(O)C(=O)C3=C(O)c4c(O)cccc4C(C)(O)C3C(O)C12 (stereo not given),inactive
18,O=C1NC(=Nc2ccc(O)cc2)S/C1=C\C=C\c1ccco1,4.08 µM
19,O=c1c2cc(O)c(O)cc2oc2cc(O)c(C3OC(CO)C(O)C(O)C3O)c(O)c12 (stereo not given),1.74 µM
20,O=C1C=C(O)c2c(O)cc(O)c(O)c2C1=O,0.742 µM
21,NS(=O)(=O)c1ccc(N/N=C/c2ccc(O)c(O)c2O)c([N+](=O)[O-])c1,1.24 µM
22,O=C(Cn1cnc([N+](=O)[O-])n1)c1ccc(O)c(O)c1,inactive
23,O=C(NCCCO)c1ccc2nc(-c3ccco3)c(-c3ccco3)nc2c1,2.85 µM
24,O=C1c2cc(O)c(O)cc2OC(c2ccc(O)c(O)c2)C1O (stereo not given),4.69 µM
